Marks after values point to notes of the source that are not given here.
What was measured:
SPT = target: T1, SPT (Mus musculus, UniProt O35704+P97363); assay: SPT activity in liver of myriocin-treated apoE KO mice; type: in vivo; details: myriocin 0.3 mg/kg intraperitoneally every other day for 8 weeks
T1 construct: myriocin treated mice had 50% less SPT activity in the liver than the controls; from tissue; host or cells: liver of apoE KO mice (The Jackson Laboratory) treated in vivo with myriocin
T1 sequence (O35704 1-473): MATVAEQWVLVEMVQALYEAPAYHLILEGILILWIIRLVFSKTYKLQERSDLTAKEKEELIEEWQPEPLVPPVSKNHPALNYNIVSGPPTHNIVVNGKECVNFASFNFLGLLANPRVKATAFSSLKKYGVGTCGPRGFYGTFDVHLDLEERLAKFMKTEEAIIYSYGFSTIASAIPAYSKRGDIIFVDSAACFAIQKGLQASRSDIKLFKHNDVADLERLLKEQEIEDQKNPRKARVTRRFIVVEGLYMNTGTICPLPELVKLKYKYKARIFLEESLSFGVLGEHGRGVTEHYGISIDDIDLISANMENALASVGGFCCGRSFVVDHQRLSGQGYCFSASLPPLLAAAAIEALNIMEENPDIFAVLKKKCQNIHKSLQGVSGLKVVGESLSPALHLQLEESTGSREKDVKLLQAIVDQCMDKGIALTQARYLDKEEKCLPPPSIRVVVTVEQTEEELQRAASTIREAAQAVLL
T1 sequence (P97363 1-560): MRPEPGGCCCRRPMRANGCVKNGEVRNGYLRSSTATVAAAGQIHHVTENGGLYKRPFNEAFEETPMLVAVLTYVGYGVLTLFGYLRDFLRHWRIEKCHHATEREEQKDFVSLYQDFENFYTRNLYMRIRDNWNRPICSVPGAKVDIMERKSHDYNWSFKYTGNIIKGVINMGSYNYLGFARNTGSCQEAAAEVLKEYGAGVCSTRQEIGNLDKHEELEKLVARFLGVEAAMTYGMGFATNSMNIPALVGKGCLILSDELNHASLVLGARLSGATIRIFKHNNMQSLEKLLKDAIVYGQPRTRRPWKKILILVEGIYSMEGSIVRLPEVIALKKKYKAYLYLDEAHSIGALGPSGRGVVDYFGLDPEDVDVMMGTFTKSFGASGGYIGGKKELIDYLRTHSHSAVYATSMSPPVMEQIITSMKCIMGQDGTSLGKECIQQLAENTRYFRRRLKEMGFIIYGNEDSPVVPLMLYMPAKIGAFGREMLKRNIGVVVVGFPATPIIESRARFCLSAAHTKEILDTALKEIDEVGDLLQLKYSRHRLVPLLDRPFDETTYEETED
T1 sequence (Q8R207 1-71 partner): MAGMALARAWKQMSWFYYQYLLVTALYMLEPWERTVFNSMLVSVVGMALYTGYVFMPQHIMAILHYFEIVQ
Description: Each mRNA level was expressed as a ratio to β-Actin mRNA. Liver tissues from Sptlc1 and Sptlc2-deficient, as well as wild type, mice were homogenized, and SPT activity was measured with ^3H-serine and palmitoyl-coenzyme A for substrates, as previously described (15).
(§1) Eight-week-old apoE KO micewere purchased from The Jackson Laboratory (Bar Harbor, Me.). Myriocin (0.3 mg/kg) (Biomol Research Laboratories Inc.) or phosphate buffered saline was injected intraperitoneally every other day for 8 weeks. The animals were on Purina Rodent Chow (catalog number 5001) or a high fat, high cholesterol diet (20% milk fat and 0.15% cholesterol; Harlan Teklad, Madison, Wis.).
In the present invention, two groups of 8-week-old apoE KO mice were utilized. Group 1 (n=7) and group 2 (n=7) animals were injected with 100 μl of myriocin (0.3 mg/kg) or phosphate-buffered saline, respectively, every other day for 8 weeks. As expected, myriocin treated mice had 50% less SPT activity in the liver than the controls.

apoE KO mice [1] = assay: Plasma lipid measurement after myriocin administration; type: in vivo, mouse; details: for Plasma PC: PC = total phospholipid minus SM; for Plasma SM: n=7; for PC/SM ratio increased / plasma PC levels increased / plasma SM levels decreased: vs control; for PC/SM ratio increased / plasma PC levels increased: p<0.0001
Description: as §1
(§2) Fasting plasma was collected for fast protein liquid chromatography (FPLC) separation and lipid measurement. Total cholesterol, phospholipids and triglyceride inplasma, and lipoproteins were assayed by enzymatic methods (WakoPure Chemical Industries Ltd., Osaka, Japan). Plasma sphingomyelin was measured as described previously (JBC13). PC concentration was obtained by subtracting SM from total phospholipid concentration. Apolipoprotein analysis using SDS-PAGE was also done as describedpreviously (JBC 14).

apoE KO mice [2] = assay: Plasma sphingolipid analysis by mass spectrometry after myriocin administration; type: in vivo, mouse; details: for Plasma C14Cer / Plasma C16Cer / Plasma C18:1Cer / Plasma C18Cer / Plasma C20Cer / Plasma C24:1Cer / Plasma C24Cer / Plasma DHSph / Plasma DHSph-1P / Plasma S1P / Plasma Sph: myriocin 0.3 mg/kg i.p. 8 weeks, n=7
Description: as §1
Plasma sphingosinebases, sphingoid base-1-phosphates, and ceramide species were performed on a Thermo Finnigan TSQ 7000 triple quadrupole mass spectrometer operating in a multiple reaction monitoring, positive ionization mode at the Department of Biochemistry and Molecular Biology, Medical University of South Carolina, on a fee-for-service basis. Briefly, 250 μl of mouse plasma was fortified with the internal standards (IC17 base D-erythro-sphingosine (17C-Sph), C17 sphingosine-1-phosphate (17C—S1P), N-palmitoyl-D-erythro-C13 sphingosine (13C-Cer), and heptadecanoyl-D-erythro-sphingosine (C17-Cer)) and extracted with ethyl acetate/iso-propanol/water (60:30:10) (v/v) solvent system. After evaporation and reconstitution in 100 μl of methanol, samples were injected onto the Surveyor/TSQ 7000 liquid chromatography/mass spectrometry system, and gradient was eluted from a BDSHypersil C8, 150×3.2-mm, 3-μm particle size column with a 1 mM methanolic ammonium formate, 2 mM aqueous ammonium formate mobile phase system. Peaks corresponding to the target analytes and internal standards were collected and processed using the Xcalibur software system. Quantitative analysis was based on the calibration curves generated by spiking an artificial matrix with the known amounts of the target analyte synthetic standards and an equal amount of the internal standards. The target analyte/internal standard peak area ratios were plotted against analyte concentration. The target analyte/internal standard peak area ratios from the samples were similarly normalized to their respective internal standards and compared with the calibration curves using a linear regression model.

apoE KO mice [3] = assay: FPLC lipid distribution among lipoproteins with or without myriocin; type: in vivo, mouse
Description: Aliquots of 200 μl of pooled plasma from mice (n=7) with or without myriocin treatment were analyzed by FPLC (V, VLDL; L, LDL; and H, HDL). An aliquot of each fraction was used for the determination of SM (FIG. 6A), PC (FIG. 6B), and cholesterol (FIG. 6C).
Aliquots of 200 μl of pooled plasma from mice (n=7) with or without myriocin treatment were analyzed by FPLC (V, VLDL; L, LDL; and H, HDL). An aliquot of each fraction was used for the determination of SM (FIG. 7A), PC (FIG. 7B), and cholesterol (FIG. 7C).
as §2
To investigate the lipid distribution among the lipoproteins with or without myriocin treatment, FPLC was utilized to fractionize lipoproteins and measured SM, PL, and cholesterol in each fraction.

apoE KO mice [4] = assay: Apolipoprotein analysis using SDS-PAGE; type: in vivo, mouse
Description: as §2

apoE KO mice [5] = assay: Atherosclerotic lesions: aorta root assay and en face assay; type: in vivo, mouse; details: 2 months of myriocin administration, p<0.01; for reduction in mean whole aortic lesion areas compared with controls: en face; for reduction in mean proximal aortic lesion areas compared with controls: root assay
From the text: This set of pictures is representative of seven sets. FIGS. 8B and 8C depict quantification of atherosclerotic lesions in the proximal aorta by root assay in mice fed a chow diet (FIG. 8B) or a high fat, high cholesterol diet (FIG. 8C). The procedure for root assay was described previously (JBC 15). FIGS. 8D and 8E depict quantification of atherosclerotic lesions in whole aorta by en face analysis in mice fed a chow diet (FIG. 8D) or a high fat, high cholesterol diet (FIG. 8E). The procedure for en face analysis was described previously (JBC 16). Values are mean ±S.D. *, p<0.001; n=7.
At the end of the myriocin treatment period, the mice were sacrificed, and the hearts and proximal aortas as well as the whole aortas were removed, dissected, and photographed. An aorta root assay and an en face assay were performed as described previously (JBC 15, 16).

T-lymphocyte populations = details: myriocin 1 mg/kg (but not 0.3 mg/kg); cited from earlier work
[6] = cited from earlier work
apoE KO mice [7] = details: oral myriocin, high cholesterol diet; cited from earlier work
[8] = test system: CIP.choline-phosphate cytidylyltransferase (CT); details: administration of L-cycloserine; cited from earlier work
[9] = chow diet, myriocin 0.3 mg/kg i.p. 8 weeks
[10] = high fat diet, myriocin 0.3 mg/kg i.p. 8 weeks
[11] = high fat, high cholesterol (Western type) diet 8 weeks
[12] = high fat, high cholesterol diet
[13] = chow diet, pooled plasma n=7, FIG. 6
[14] = high fat diet, pooled plasma n=7, FIG. 7

## CCCCCCC(=O)CCCCCC/C=C/C[C@@H](O)[C@H](O)[C@@](N)(CO)C(=O)O [Myriocin, myriocin]
SPT
  less SPT activity in the liver than the controls: 50%
apoE KO mice [1]; chow diet
  total cholesterol levels, change after myriocin: not significantly changed
  triglyceride levels, change after myriocin: not significantly changed
  PC/SM ratio increased: 317%
  plasma PC levels increased: 91%
apoE KO mice [1]; [9]
  PC/SM: 12.1 ± 0.2a
  Plasma Chol: 660 ± 105 mg/dL
  Plasma TG: 75 ± 19 mg/dL
  Plasma PC: 399 ± 59^a mg/dl
apoE KO mice [1]; chow diet, myriocin 0.3 mg/kg i.p. every other day 8 weeks, mean ± S.D.
  Plasma SM: 33 ± 3^a mg/dl
apoE KO mice [1]; chow diet, p<0.001
  plasma SM levels decreased: 54%
apoE KO mice [1]; [10]
  PC/SM: 16.9
  Plasma Chol: 1807 ± 342 mg/dL
  Plasma TG: 107 ± 27 mg/dL
  Plasma SM: 47 ± 14^a mg/dl
  Plasma PC: 795 ± 97^a mg/dl
apoE KO mice [1]; [11]
  plasma SM levels decreased: 59%
  PC/SM ratio increased: 380%
  plasma PC levels increased: 100%
apoE KO mice [1]; [12]
  total cholesterol levels, change after myriocin: not significantly changed
  triglyceride levels, change after myriocin: not significantly changed
apoE KO mice [2]; chow diet
  plasma Cer, change after myriocin treatment: significantly decreased
  plasma S1P, change after myriocin treatment: significantly decreased
  plasma Sph, change after myriocin treatment: significantly decreased
  Plasma C14Cer: 12 ± 2^a nM
  Plasma C16Cer: 11 ± 3^a nM
  Plasma C18:1Cer: 2 ± 1^a nM
  Plasma C18Cer: 51 ± 8^a nM
  Plasma C20Cer: 35 ± 9^a nM
  Plasma C24:1Cer: 854 ± 144^a nM
  Plasma C24Cer: 1321 ± 22^a nM
  Plasma DHSph: 30 ± 3 nM
  Plasma DHSph-1P: 9 ± 5^a nM
  Plasma S1P: 58 ± 9^a nM
  Plasma Sph: 127 ± 8^a nM
apoE KO mice [2]; chow diet, listed as myriocin
  Plasma S1P: < 100 nM
apoE KO mice [2]; high fat diet
  Plasma C14Cer: 20 ± 2 nM
  Plasma C16Cer: 12 ± 6^a nM
  Plasma C18:1Cer: 9 ± 1^a nM
  Plasma C18Cer: 36 ± 14^a nM
  Plasma C20Cer: 45 ± 11^a nM
  Plasma C24:1Cer: 1009 ± 134^a nM
  Plasma C24Cer: 1708 ± 426^a nM
  Plasma DHSph: 20 ± 1^a nM
  Plasma DHSph-1P: 10 ± 2^a nM
  Plasma S1P: 42 ± 19^a nM
  Plasma Sph: 114 ± 19^a nM
apoE KO mice [2]; [12]
  plasma Cer, change after myriocin treatment: dramatically decreased
  plasma S1P, change after myriocin treatment: dramatically decreased
  plasma Sph, change after myriocin treatment: dramatically decreased
apoE KO mice [3]; [13]
  PC in FPLC lipoprotein fractions: increased
  SM in FPLC lipoprotein fractions: significantly decreased
  cholesterol in FPLC lipoprotein fractions: no significant effect
apoE KO mice [3]; [14]
  PC in FPLC lipoprotein fractions: increased
  SM in FPLC lipoprotein fractions: dramatically decreased
  cholesterol in FPLC lipoprotein fractions: no effect
apoE KO mice [4]; chow diet
  levels of apolipoproteins, including apoB100, apoB48, and apoA-I: no significant changes
apoE KO mice [4]; [12]
  levels of apolipoproteins, including, apoB48, and apoA-I: no significant changes
apoE KO mice [5]; Western type diet
  reduction in mean whole aortic lesion areas compared with controls: 37%
  reduction in mean proximal aortic lesion areas compared with controls: 39%
apoE KO mice [5]; chow diet
  reduction in mean whole aortic lesion areas compared with controls: 36%
  reduction in mean proximal aortic lesion areas compared with controls: 42%
T-lymphocyte populations
  effect on T-lymphocyte populations in mice: reduces T-lymphocyte populations
[6]
  toxicity of oral administration: serious gastrointestinal toxicity
apoE KO mice [7]
  atherosclerotic lesions: dramatic reduction
  plasma SM levels: significant reduction
  plasma cholesterol levels: significant reduction

## N[C@@H]1CON=C1O [L-cycloserine]
[8]
  stimulation of CT activity: 74%
